Values quoted from earlier work as cited in patent US6525025B2, “Gamma-ketoacid dipeptides as inhibitors of caspase-3” (Merck Frosst Canada & Co., priority 2000, dated 2003).

Legend:
[1] = biological target: T1, caspase-3 (Homo sapiens, UniProt P42574)
T1 sequence (P42574 29-175 limits assumed): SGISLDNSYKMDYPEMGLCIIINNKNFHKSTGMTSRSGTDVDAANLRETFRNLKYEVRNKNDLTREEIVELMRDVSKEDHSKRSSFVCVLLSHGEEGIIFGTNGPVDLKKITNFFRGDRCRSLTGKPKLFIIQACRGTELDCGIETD
T1 sequence (P42574 176-277 limits assumed): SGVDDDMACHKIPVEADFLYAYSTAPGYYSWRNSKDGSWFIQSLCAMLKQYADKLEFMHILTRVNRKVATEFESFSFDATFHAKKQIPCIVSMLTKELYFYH

[2] = biological target: T2, caspase-1 (Homo sapiens, UniProt P29466)
T2 sequence (P29466 120-297 limits assumed): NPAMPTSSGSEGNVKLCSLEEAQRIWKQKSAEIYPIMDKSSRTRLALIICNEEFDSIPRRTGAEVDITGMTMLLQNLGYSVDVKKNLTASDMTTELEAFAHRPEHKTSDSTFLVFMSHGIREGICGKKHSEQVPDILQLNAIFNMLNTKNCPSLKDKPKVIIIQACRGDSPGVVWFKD
T2 sequence (P29466 317-404 limits assumed): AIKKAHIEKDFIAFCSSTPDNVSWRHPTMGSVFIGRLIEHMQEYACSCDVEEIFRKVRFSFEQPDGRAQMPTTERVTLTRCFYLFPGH

Question: With Ac-YVAD-CHO as the substance, how does the Ki [1] read?
Answer: The Ki was 12 µM.

Question: And the Ki [2]?
Answer: Its Ki is under 0.001 µM.
